pIC50: −log10 of the molar value. Starred links: 1 amine or outer side, 2 acyl side, 3 side chain; linkers in the order of their positions; H or OH if unused. Positions of bridges follow the written chain, without caps; N, C: chain ends. Non-standard residues stand in square brackets, D forms with d. Residues, ends and D or L forms follow the SMILES beside them. X18 = O=C([C@@H](Cc1cccc(OCC=[*:3])c1)N[*:1])[*:2]; X25 = O=C([C@H](Cc1cccc(OCC=[*:3])c1)N[*:1])[*:2]; X26 = O=C([C@@H]1[C@@H](OCC=[*:3])CCN1[*:1])[*:2]; Trp(5-F) = N[C@@H](Cc1c[nH]c2ccc(F)cc12)C(=O)O; Pyridine(3,5-bisCH2) = c1ncc(C[*:2])cc1C[*:1]; dPro(cis-4-NH2) = N[C@H]1CN[C@@H](C(=O)O)C1; Asp(3,3-Me2) = CC(C)(C(=O)O)[C@H](N)C(=O)O; X17 = O=C(CCSCc1ccc(CSCCN[*:1])cc1)[*:2]; Lys(N3) = [N-]=[N+]=NCCCC[C@H](N)C(=O)O; Pro(4S-NH2) = N[C@@H]1CN[C@H](C(=O)O)C1; X4 = O=C(CCSCc1cccc(CSCCN[*:1])c1)[*:2]; NMeY = CN[C@@H](Cc1ccc(O)cc1)C(=O)O; X39 = c1cc(CCSCN[*:2])cc(C[*:1])c1; X15 = Brc1cc(C[*:1])cc(C[*:2])c1; X22 = Oc1cc(C[*:1])cc(C[*:2])c1; Aad = N[C@@H](CCCC(=O)O)C(=O)O; AllylGly = C=CC[C@H](N)C(=O)O; αMeP = C[C@@]1(C(=O)O)CCCN1; Mpa = O=C(O)CCS

In experiment [1] the target is human PCSK9 / human LDLR EGFa domain interaction (Homo sapiens (Human), UniProt Q8NBP7). The experiment in a line: TR-FRET assay of inhibition of the PCSK9-LDLR protein-protein interaction. In kind it is binding. The conditions noted are these: TR-FRET, 20 nM human PCSK9, 20 nM human LDLR EGFa domain, 2 hours room temperature; read-out: IC50. The method in brief: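 Inhibition of PCSK9 binding to the LDLR EGFa domain, each protein at 20 nM, detected by TR-FRET using streptavidin and anti-His donor/acceptor labels (5 nM). Two-hour room-temperature incubation in calcium-containing HEPES buffer.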
Chain of human PCSK9 / human LDLR EGFa domain interaction (Q8NBP7 153-692): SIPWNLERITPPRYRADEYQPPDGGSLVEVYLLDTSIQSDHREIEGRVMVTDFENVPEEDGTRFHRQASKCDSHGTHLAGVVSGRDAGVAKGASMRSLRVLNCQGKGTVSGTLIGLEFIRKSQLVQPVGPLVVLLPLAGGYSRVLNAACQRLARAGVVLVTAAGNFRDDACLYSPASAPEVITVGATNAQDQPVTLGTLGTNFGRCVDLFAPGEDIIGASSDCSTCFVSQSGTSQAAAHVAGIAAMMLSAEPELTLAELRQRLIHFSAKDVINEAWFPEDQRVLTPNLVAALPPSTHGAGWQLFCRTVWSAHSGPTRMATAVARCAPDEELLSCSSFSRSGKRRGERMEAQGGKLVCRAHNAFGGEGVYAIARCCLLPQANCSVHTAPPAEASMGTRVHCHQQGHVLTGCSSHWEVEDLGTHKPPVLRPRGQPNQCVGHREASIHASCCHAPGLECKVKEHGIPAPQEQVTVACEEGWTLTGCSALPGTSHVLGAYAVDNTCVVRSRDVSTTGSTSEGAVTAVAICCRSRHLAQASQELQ
Chain of human PCSK9 / human LDLR EGFa domain interaction (Q8NBP7 31-152 partner): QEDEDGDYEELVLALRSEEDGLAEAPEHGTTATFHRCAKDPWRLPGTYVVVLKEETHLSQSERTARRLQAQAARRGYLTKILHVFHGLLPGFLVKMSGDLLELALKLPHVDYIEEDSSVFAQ

The next experiment has as its target PCSK9 (Homo sapiens (Human), UniProt Q8NBP7). The experiment is described as follows: PCSK9 Alexa FRET Standard assay (displacement of AlexaFluor647 tagged cyclic peptide Reagent A). The conditions noted are these: PCSK9 Alexa FRET Standard assay, 0.5 nM PCSK9, 20 nM AF cyclic peptide Reagent A; read-out: IC50. In kind it is binding. The method in brief: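 TR-FRET displacement: 0.5 nM biotinylated PCSK9 with 1.25 nM Strep-Eu and 20 nM AlexaFluor-tagged cyclic peptide (final) in 50 mM HEPES pH 7.4, 0.15 M NaCl, 5 mM CaCl2, 0.01% BSA, 0.01% P20, ≥2 h at room temperature. IC50 from sigmoidal fit, converted to Ki via peptide KD; falling Eu counts flagged false positives.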

Chain of PCSK9 (Q8NBP7 153-692): as the sequence (Q8NBP7 153-692) above

The pIC50 is the negative decadic logarithm of the IC50, by convention in mol/L. For `COc1ccc(C[C@@H]2NC(=O)[C@H](CCC(=O)O)NC(=O)[C@@H]3C[C@H](N)CN3C(=O)[C@H](Cc3c[nH]c4ccc(F)cc34)NC(=O)[C@H](Cc3c[nH]c4ccc(F)cc34)NC(=O)[C@@H](C)NC(=O)[C@H](C)NC(=O)CCSCc3ccc(cc3)CSCCNC(=O)[C@]3(C)CCCN3C2=O)cc1` [Compound 382] (cyclo(A[dA][Trp(5-F)][Trp(5-F)][Pro(4S-NH2)]EY(Me)[αMeP][X17])), the pIC50 in experiment [1] was 7.00 to 10.00; at PCSK9, 7.00 to 9.96.

In the case of `COc1ccc(C[C@@H]2NC(=O)[C@H]([C@@H](C)O)NC(=O)[C@@H]3CCCN3C(=O)[C@H](Cc3c[nH]c4ccc(F)cc34)NC(=O)[C@H](Cc3c[nH]c4ccc(F)cc34)NC(=O)[C@@H](C)NC(=O)[C@H](CCCCN)NC(=O)CCSCc3cncc(c3)CSC[C@@H](C(N)=O)NC(=O)[C@]3(C)CCCN3C2=O)cc1` [Compound 058] ([Mpa]K[dA][Trp(5-F)][Trp(5-F)]PTY(Me)[αMeP]C-NH2; linker 1-10 via Pyridine(3,5-bisCH2)), the pIC50 in experiment [1] is 7.00 to 10.00; on PCSK9, 7.00 to 9.96.

Consider `C[C@@]12CCCN1C(=O)[C@H](Cc1ccc(O)cc1)NC(=O)[C@H](Cc1c[nH]cn1)NC(=O)[C@H](CC(=O)O)NC(=O)[C@H](Cc1c[nH]c3ccc(F)cc13)NC(=O)[C@H](Cc1c[nH]c3ccc(F)cc13)NC(=O)CNC(=O)[C@H](CCCCN)NC(=O)CCSCc1cc(O)cc(c1)CSC[C@@H](C(N)=O)NC2=O` [Compound 359] ([Mpa]KG[Trp(5-F)][Trp(5-F)]DHY[αMeP]C-NH2; linker 1-10 via X22), for which the results for the pIC50 (in experiment [1]; on PCSK9) were 7.00 to 10.00 and 6.00 to 7.00, respectively.

Consider `COc1ccc(C[C@@H]2NC(=O)[C@H]([C@H](C)O)NC(=O)[C@@H]3C[C@H](F)CN3C(=O)[C@H](Cc3c[nH]c4ccc(F)cc34)NC(=O)[C@H](Cc3c[nH]c4ccc(F)cc34)NC(=O)[C@@H](C)NC(=O)[C@H](CCCCN)NC(=O)[C@H](NC(C)=O)CCc3cn(nn3)-c3ccc(cc3)C[C@@H](C(N)=O)NC(=O)[C@]3(C)CCCN3C2=O)cc1` [Compound 068], for which the pIC50 was 7.00 to 10.00 in experiment [1] and 7.00 to 9.96 at PCSK9.

Regarding `C[C@H]1NC(=O)[C@H](CCCCN)NC(=O)CCSCc2cccc(c2)CSCCNC(=O)[C@]2(C)CCCN2C(=O)[C@H](Cc2ccc(O)cc2)N(C)C(=O)[C@H](Cc2c[nH]cn2)NC(=O)[C@H](C(C)(C)C(=O)O)NC(=O)[C@H](Cc2c[nH]c3ccc(F)cc23)NC(=O)[C@H](Cc2c[nH]c3ccc(F)cc23)NC1=O` [Compound 383] (cyclo(H[NMeY][αMeP][X4]K[dA][Trp(5-F)][Trp(5-F)][Asp(3,3-Me2)])), the pIC50 in experiment [1] is 7.00 to 10.00; at PCSK9, 6.00 to 7.00.

Turning to `COc1ccc(C[C@@H]2NC(=O)[C@H]([C@@H](C)O)NC(=O)[C@@H]3CCCN3C(=O)[C@H](Cc3c[nH]c4ccc(F)cc34)NC(=O)[C@H](Cc3c[nH]c4ccc(F)cc34)NC(=O)[C@@H](C)NC(=O)[C@H](CCCCN)NC(=O)CCSCc3cc(Br)cc(c3)CSC[C@@H](C(N)=O)NC(=O)[C@]3(C)CCCN3C2=O)cc1` [Compound 061] ([Mpa]K[dA][Trp(5-F)][Trp(5-F)]PTY(Me)[αMeP]C-NH2; linker 1-10 via X15), the pIC50 (in experiment [1]; at PCSK9) was 4.30 to 4.68 in each case.

As to `COc1ccc(C[C@@H]2NC(=O)[C@H](CCCC(=O)O)NC(=O)[C@H]3C[C@@H](N)CN3C(=O)[C@H](Cc3c[nH]c4ccc(F)cc34)NC(=O)[C@H](Cc3c[nH]c4ccc(F)cc34)NC(=O)[C@@H](C)NC(=O)[C@H](CCCCN=[N+]=[N-])NC(=O)CCSCc3cccc(c3)CCSCNC(=O)[C@]3(C)CCCN3C2=O)cc1` [Compound 408] ([Mpa][Lys(N3)][dA][Trp(5-F)][Trp(5-F)][dPro(cis-4-NH2)][Aad]Y(Me)[αMeP]; linker 1-C via X39), the pIC50 (in experiment [1]; on PCSK9) was 4.30 to 4.68 in each case.

For `C[C@@H]1NC(=O)CCSCc2cccc(c2)CSCCNC(=O)[C@]2(C)CCCN2C(=O)[C@H](Cc2ccc(O)cc2)NC(=O)[C@H](C)NC(=O)[C@@H]2C/C=C\COc3cccc(c3)C[C@@H](NC(=O)[C@@H](C)NC1=O)C(=O)N[C@@H](Cc1c[nH]c3ccc(F)cc13)C(=O)N2` [Compound 498] (cyclo(AY[αMeP][X4]A[dA][X18][Trp(5-F)][AllylGly]); staple (Z) 7-9), the pIC50 (in experiment [1]; on PCSK9) was 4.92 to 6.00 throughout.

With `COc1ccc(C[C@@H]2NC(=O)[C@H]([C@@H](C)O)NC(=O)[C@@H]3[C@@H]4CCN3C(=O)[C@H](Cc3c[nH]c5ccc(F)cc35)NC(=O)[C@H](Cc3cccc(c3)OC/C=C/CO4)NC(=O)[C@@H](C)NC(=O)[C@H](C)NC(=O)CCSCc3cccc(c3)CSCCNC(=O)[C@]3(C)CCCN3C2=O)cc1` [Compound 516] (cyclo(A[dA][X25][Trp(5-F)][X26]TY(Me)[αMeP][X4]); staple (E) 3-5), the figures for the pIC50 (in experiment [1]; on PCSK9) were 7.00 to 10.00 and 7.00 to 9.96, respectively.

For the origin of these results see patent US11530244B2, “Cyclic polypeptides for PCSK9 inhibition” (priority 2018, dated 2022).
